Measured values from patent US20220096454A1, “CARBOXYLIC ACID DERIVATIVES” (Merck Patent GmbH, priority 2018, published 2022).

Tests used:
TNKS1 = biological target: T1, TNKS1 (Homo sapiens, UniProt O95271); test: TNKS1 activity ELISA (autoparsylation assay); assay type: biochemical; conditions: GST-tagged Tnks-1 (1023-1327 aa), 10 μM bio-NAD, 1 hour at 30° C.
T1 construct: GST-tagged Tnks-1 (1023-1327 aa, prepared in-house); made in house
Procedure: (§1) Description of the TNKS1 and TNKS2 ELISA Assay
(§2) Biochemical activity testing of TNKS 1 and 2: activity ELISA (Autoparsylation assay)
(§3) For analysis of autoparsylation activity of TNKS 1 and 2 an activity ELISA is performed: In the first step GST tagged TNKS is captured on a Glutathione coated plate. Then the activity assay with biotinylated NAD is performed in the absence/presence of the compounds. During the enzymatic reaction GST tagged TNKS transfers biotinylated ADP-ribose to itself from biotinylated NAD as co-substrate. For the detection streptavidin-HRP conjugate is added that binds to the biotinylated TNKS and is thereby captured to the plates. The amount of biotinylated resp. autoparsylated TNKS is detected with a luminescence substrate for HRP. The level of the luminescence signal correlates directly with the amount of autoparsylated TNKS and therefore with activity of TNKS.
(§4) The activity ELISA is performed in 384 well Glutathione coated microtiter plates (Express capture Glutathione coated plate, Biocat, Heidelberg, Germany). The plates are pre-equilibrated with PBS. […] The plates are washed 3 times with PBS-Tween-20. The wells are blocked by incubation at room temperature for 20 minutes with 50 μl blocking buffer (PBS, 0.05% Tween-20, 0.5% BSA). Afterwards the plates are washed 3 times with PBS-Tween-20. […] The reaction is stopped by 3 times washing with PBS-Tween-20. For the detection 50 μl of 20 ng/μl Streptavidin, HRP conjugate (MoBiTec, Göttingen, Germany) in PBS/0.05% Tween-20/0.01% BSA are added and the plates are incubated for 30 minutes at room temperature. After three times washing with PBS-Tween-20 50 μl of SuperSignal ELISA Femto Maximum sensitivity substrate solution (ThermoFisherScientific (Pierce), Bonn, Germany) are added. Following a 1 minute incubation at room temperature luminescence signals are measured with an Envision multimode reader (Perkin Elmer LAS Germany GmbH) at 700 nm. The full value used is the inhibitor-free reaction. […] The inhibitory values (IC50) are determined using either the program Symyx Assay Explorer® or Condosseo® from GeneData.

TNKS2 = biological target: T2, TNKS2 (Homo sapiens, UniProt Q9H2K2); test: TNKS2 activity ELISA (autoparsylation assay); assay type: biochemical; conditions: GST-tagged Tnks-2 (873-1166 aa), 10 μM bio-NAD, 1 hour at 30° C.
T2 construct: GST-tagged Tnks-2 (873-1166 aa, prepared in-house); made in house
Procedure: as §1, §2, §3, §4

Tankyrases = conditions: read-out: EC50 [M] TNKS cellular assay; increase of Axin2 level in colon carcinoma cell line DLD1, 24 hours
Procedure: Measurement of Cellular Inhibition of Tankyrase
Cells of the colon carcinoma cell line DLD1 are plated in 96 well plates with 1.5×10^4 cells per well. Next day, cells are treated with a serial dilution of test compound in seven steps as triplicates with a final DMSO concentration of 0.3%. […] The amount of isolated Axin2 protein is determined in a Luminex^200 machine (Luminex Corporation) according to the manufacturer's instruction by counting 100 events per well. […] As controls cells are treated with solvent alone (neutral control) and with a Tankyrase reference inhibitor IWR-2 (3E−06 M) which refers as control for maximum increase of Axin2. For analysis, the obtained data are normalized against the untreated solvent control and fitted for determination of the EC50 values using the Assay Explorer software (Accelrys).

T2 sequence (Q9H2K2 873-1166): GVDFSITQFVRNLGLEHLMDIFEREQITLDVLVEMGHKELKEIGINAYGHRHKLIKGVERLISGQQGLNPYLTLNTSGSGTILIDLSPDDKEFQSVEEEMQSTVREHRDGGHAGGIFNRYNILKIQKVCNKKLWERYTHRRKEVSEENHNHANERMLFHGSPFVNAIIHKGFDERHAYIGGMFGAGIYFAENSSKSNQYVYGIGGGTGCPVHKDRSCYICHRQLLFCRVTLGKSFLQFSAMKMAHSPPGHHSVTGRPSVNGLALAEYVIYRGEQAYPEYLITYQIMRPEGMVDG
T1 sequence (O95271 1023-1327): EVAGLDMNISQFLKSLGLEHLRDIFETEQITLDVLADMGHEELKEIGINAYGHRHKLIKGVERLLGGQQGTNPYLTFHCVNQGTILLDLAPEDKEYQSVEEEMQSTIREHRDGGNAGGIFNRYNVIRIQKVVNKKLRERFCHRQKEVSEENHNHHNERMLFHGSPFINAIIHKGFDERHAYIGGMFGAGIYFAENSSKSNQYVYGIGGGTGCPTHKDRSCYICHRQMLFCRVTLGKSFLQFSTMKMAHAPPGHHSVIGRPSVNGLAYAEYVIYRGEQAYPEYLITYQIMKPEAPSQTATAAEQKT

Row | Structure (SMILES) | IC50 (TNKS1) [nM] | IC50 (TNKS2) [nM] | EC50 (Tankyrases) [M]
1 | CCN(C(=O)N1CCC(C(=O)c2ccc3c(c2)c(C(=O)O)nn3C)CC1)c1ccc(OC)cc1 [Compound C16, 5-{1-[Ethyl-(4-methoxy-phenyl)-carbamoyl]-piperidine-4-carbonyl}-1-methyl-1H-indazole-3-carboxylic Acid] | 9.7 | 4.5 | 9.7e-07
2 | CCN(C(=O)N1CCC(C(=O)c2ccc3c(c2)c(C(=O)O)nn3C)CC1)c1ccc(F)cc1 [Compound C14, 5-{1-[Ethyl-(4-fluoro-phenyl)-carbamoyl]-piperidine-4-carbonyl}-1-methyl-1H-indazole-3-carboxylic Acid] | 12.4 | 5.91 | 9.4e-06
3 | CN(C(=O)N1CCC(C(=O)c2ccc3c(c2)ncn3C)CC1)c1cccc(C(=O)O)c1 [Compound C32, 3-{Methyl-[4-(1-methyl-1H-benzimidazole-5-carbonyl)-piperidine-1-carbonyl]-amino}-benzoic Acid] | 19 | 7.8 | 
4 | CCN(C(=O)N1CCC(C(=O)c2ccc3nnn(C)c3c2)CC1)c1ccc(C(=O)O)cc1 [Compound C35, 4-{Ethyl-[4-(3-methyl-3H-benzotriazole-5-carbonyl)-piperidine-1-carbonyl]-amino}-benzoic Acid] | 0.472 | 0.192 | 3.1e-07
5 | CN(C(=O)N1CCC(C(=O)c2ccc3cnn(C)c3c2)CC1)c1ccc(C(=O)O)cc1 [Compound C17, 4-{Methyl-[4-(1-methyl-1H-indazole-6-carbonyl)-piperidine-1-carbonyl]-amino}-benzoic Acid] | 1.32 | 0.798 | 2.07e-07
6 | CN(C(=O)N1CCC(C(=O)c2ccc3cnn(C)c3c2)CC1)c1cccc(C(=O)O)c1 [Compound C19, 3-{Methyl-[4-(1-methyl-1H-indazole-6-carbonyl)-piperidine-1-carbonyl]-amino}-benzoic Acid] | 2.2 | 1.4 | 1.4e-06
7 | CN(C(=O)N1CCC(C(=O)c2ccc3ncn(C)c3c2)CC1)c1ccc(C(=O)O)cc1 [Compound C26, 4-{Methyl-[4-(3-methyl-3H-benzoimidazole-5-carbonyl)-piperidine-1-carbonyl]-amino}-benzoic Acid] | 1.5 | 0.62 | 1.1e-06
8 | CN(C(=O)N1CCC(C(=O)c2ccc3cnn(C)c3c2)CC1)c1ccc(C(=O)O)nc1 [Compound C21, 5-{Methyl-[4-(1-methyl-1H-indazole-6-carbonyl)-piperidine-1-carbonyl]-amino}-pyridine-2-carboxylic Acid] | 37 | 14 | 1.5e-05
9 | CN(C(=O)N1CCC(C(=O)c2ccc3c(C(=O)O)nn(C)c3c2)CC1)c1ccc(F)cc1 [Compound C9, 6-{1-[(4-Fluoro-phenyl)-methyl-carbamoyl]-piperidine-4-carbonyl}-1-methyl-1H-indazole-3-carboxylic Acid] | 3.29 | 1.66 | 4.9e-06
10 | CN(C(=O)N1CCC(C(=O)c2ccc3c(cnn3C)c2)CC1)c1cccc(C(=O)O)c1 [Compound C24, 3-{Methyl-[4-(1-methyl-1H-indazole-5-carbonyl)-piperidine-1-carbonyl]-amino}-benzoic Acid] | 1.3 | 0.63 | 6.4e-07
11 | CN(C(=O)N1CCC(C(=O)c2ccc3c(c2)c(C(=O)O)nn3C)CC1)c1ccc(F)cc1 [Compound C13, 5-{1-[(4-Fluoro-phenyl)-methyl-carbamoyl]-piperidine-4-carbonyl}-1-methyl-1H-indazole-3-carboxylic Acid] | 115 | 49.9 | 
12 | CN(C(=O)N1CCC(C(=O)c2ccc3ncn(C)c3c2)CC1)c1cccc(C(=O)O)c1 [Compound C28, 3-{Methyl-[4-(3-methyl-3H-benzimidazole-5-carbonyl)-piperidine-1-carbonyl]-amino}-benzoic Acid] | 53 | 23 | 
